Source: paper PMC10590419, “Structural and mechanistic insights into the inhibition of respiratory syncytial virus polymerase by a non-nucleoside inhibitor” (Communications Biology, 2023)

Test system: RSV minigenome transcription and RNA replication
Test: RSV minigenome assay in BSR-T7 cells
Type: cell-based, respiratory syncytial virus
Experimental: RSV transcription and RNA replication were analyzed using a replication-deficient minigenome, in which the minigenome template contained a single nucleotide substitution in the trailer region, limiting it to the antigenome step of RNA replication and uncoupling transcription from replication. Minigenome transcription and replication were reconstituted intracellularly. BSR-T7 cells, a T7 RNA polymerase expressing cell line, were cultured in a 6-well dish and transfected with T7-driven plasmids that expressed the minigenome template (200 ng/ well), and the RSV proteins N (400 ng/ well), P (200 ng/ well), L (100 ng/ well) and M2-1 (100 ng/ well). Transfections were performed using Lipofectamine (Thermofisher) according to the manufacturer’s directions. […] Input minigenome RNA, antigenome RNA, and mRNAs were detected by subjecting RNA to electrophoresis in 1.5% agarose-formaldehyde gels in MOPS buffer, followed by Northern blotting using ^32P labeled riboprobes specific to negative sense minigenome (to detect the input RNA) and to positive sense antigenome and mRNAs. The same RNA samples were also analyzed by primer extension using ^32P end-labeled primers corresponding in sequence to nucleotides 15–39 of the leader region (to detect RNA initiated from the +1U and +3 C sites on the promoter). […] Quantification was performed by phosphorimage analysis. […]

## COc1cc(C(=O)NC[C@](O)(c2cc(C(C)(C)O)c(F)c(-c3ccc(F)cc3)n2)C(F)(F)F)cc2cc(C)nnc12 [JNJ-8003]
  antigenome RNA and mRNA (in words): dose dependent reduction
